Consider 41 compounds from ChEMBL document CHEMBL4831514, “Novel betulin dicarboxylic acid ester derivatives as potent antiviral agents: Design, synthesis, biological evaluation, structure-activity relationship and in-silico study” (Eur J Med Chem, 2021).

Active and inactive are the calls of the source. The calls are words filed in the database; no cut-off is given here.

The subject of the assay is Vesicular stomatitis virus. Nature of the assay: Antiviral activity against Vesicular stomatitis virus Indiana infected in A549 cells assessed as inhibition of viral adsorption at early stage of replication treated for 1 hr during viral infection followed by replacement with fresh medium and measured after 48 hrs by MTT assay. It is filed as functional, organism-based. A general note: Tetrazolium dyes change colour on reduction, which living cells bring about.

As to `C=C(C)[C@@H]1CC[C@]2(COC(=O)CCCCCCCCCC(=O)O)CC[C@]3(C)[C@H](CC[C@@H]4[C@@]5(C)CC[C@H](O)C(C)(C)[C@@H]5CC[C@]43C)[C@@H]12`, the result was inactive.

Consider `C=C(C)[C@@H]1CC[C@]2(COC(=O)c3cccc(C(=O)N4CCOCC4)c3)CC[C@]3(C)[C@H](CC[C@@H]4[C@@]5(C)CC[C@H](O)C(C)(C)[C@@H]5CC[C@]43C)[C@@H]12`, for which the outcome was inactive.

For `C=C(C)[C@@H]1CC[C@]2(COC(=O)CCCC(=O)O)CC[C@]3(C)[C@H](CC[C@@H]4[C@@]5(C)CC[C@H](O)C(C)(C)[C@@H]5CC[C@]43C)[C@@H]12`, the result was inactive.

Take `C=C(C)[C@@H]1CC[C@]2(CO)CC[C@]3(C)[C@H](CC[C@@H]4[C@@]5(C)CC[C@H](O)C(C)(C)[C@@H]5CC[C@]43C)[C@@H]12` [BETULIN]: the result was inactive.

Regarding `C=C(C)[C@@H]1CC[C@]2(COC(=O)c3cccc(C(=O)O)c3)CC[C@]3(C)[C@H](CC[C@@H]4[C@@]5(C)CC[C@H](O)C(C)(C)[C@@H]5CC[C@]43C)[C@@H]12`, the outcome was inactive.

For `C#CCNC(=O)CCCCCCCCCC(=O)OC[C@]12CC[C@@H](C(=C)C)[C@@H]1[C@H]1CC[C@@H]3[C@@]4(C)CC[C@H](O)C(C)(C)[C@@H]4CC[C@@]3(C)[C@]1(C)CC2`, the result was inactive.

Take `C=C(C)[C@@H]1CC[C@]2(COC(=O)/C=C/C(=O)O)CC[C@]3(C)[C@H](CC[C@@H]4[C@@]5(C)CC[C@H](O)C(C)(C)[C@@H]5CC[C@]43C)[C@@H]12`: the result was inactive.

On to `C#CCNC(=O)CCCC(=O)OC[C@]12CC[C@@H](C(=C)C)[C@@H]1[C@H]1CC[C@@H]3[C@@]4(C)CC[C@H](O)C(C)(C)[C@@H]4CC[C@@]3(C)[C@]1(C)CC2`, for which the result was inactive.

On to `C#CC1(NC(=O)c2cccc(C(=O)OC[C@]34CC[C@@H](C(=C)C)[C@@H]3[C@H]3CC[C@@H]5[C@@]6(C)CC[C@H](O)C(C)(C)[C@@H]6CC[C@@]5(C)[C@]3(C)CC4)c2)CCCCC1`, for which the outcome was inactive.

`C=C(C)[C@@H]1CC[C@]2(COC(=O)CCC(=O)N3CCOCC3)CC[C@]3(C)[C@H](CC[C@@H]4[C@@]5(C)CC[C@H](O)C(C)(C)[C@@H]5CC[C@]43C)[C@@H]12`: the result was inactive.

Take `C=C(C)[C@@H]1CC[C@]2(COC(=O)CCCC(=O)N3CCOCC3)CC[C@]3(C)[C@H](CC[C@@H]4[C@@]5(C)CC[C@H](O)C(C)(C)[C@@H]5CC[C@]43C)[C@@H]12`: the result was inactive.

For `C#CC1(NC(=O)c2ccccc2C(=O)OC[C@]23CC[C@@H](C(=C)C)[C@@H]2[C@H]2CC[C@@H]4[C@@]5(C)CC[C@H](O)C(C)(C)[C@@H]5CC[C@@]4(C)[C@]2(C)CC3)CCCCC1`, the result was inactive.

For `C#CC1(NC(=O)CCCCCCCCCC(=O)OC[C@]23CC[C@@H](C(=C)C)[C@@H]2[C@H]2CCC4[C@@]5(C)CC[C@H](O)C(C)(C)[C@@H]5CC[C@@]4(C)[C@]2(C)CC3)CCCCC1` (single isomer, unassigned), the result was inactive.

In the case of `C#CCNC(=O)c1cccc(C(=O)OC[C@]23CC[C@@H](C(=C)C)[C@@H]2[C@H]2CC[C@@H]4C5(C)CC[C@H](O)C(C)(C)[C@@H]5CC[C@@]4(C)[C@]2(C)CC3)c1` (single isomer, unassigned), the outcome was inactive.

For `NC(=O)c1ncn([C@@H]2O[C@H](CO)[C@@H](O)[C@H]2O)n1` [RIBAVIRIN], the result was inactive.

Regarding `C=C(C)[C@@H]1CC[C@]2(COC(=O)CCCC(=O)N3CCSCC3)CC[C@]3(C)[C@H](CC[C@@H]4[C@@]5(C)CC[C@H](O)C(C)(C)[C@@H]5CC[C@]43C)[C@@H]12`, the outcome was inactive.

Turning to `C#CCNC(=O)/C(C)=C/C(=O)OC[C@]12CC[C@@H](C(=C)C)[C@@H]1[C@H]1CC[C@@H]3[C@@]4(C)CC[C@H](O)C(C)(C)[C@@H]4CC[C@@]3(C)[C@]1(C)CC2`, the outcome was inactive.

Take `C=C(C)[C@@H]1CC[C@]2(COC(=O)/C=C(\C)C(=O)O)CC[C@]3(C)[C@H](CC[C@@H]4[C@@]5(C)CC[C@H](O)C(C)(C)[C@@H]5CC[C@]43C)[C@@H]12`: the outcome was inactive.

Consider `C#CCNC(=O)c1ccccc1C(=O)OC[C@]12CC[C@@H](C(=C)C)[C@@H]1[C@H]1CC[C@@H]3[C@@]4(C)CC[C@H](O)C(C)(C)[C@@H]4CC[C@@]3(C)[C@]1(C)CC2`, for which the result was inactive.

Consider `C=C(C)[C@@H]1CC[C@]2(COC(=O)c3cccc(C(=O)N4CCCCC4)c3)CC[C@]3(C)[C@H](CC[C@@H]4[C@@]5(C)CC[C@H](O)C(C)(C)[C@@H]5CC[C@]43C)[C@@H]12`, for which the outcome was inactive.

For `C=C(C)[C@@H]1CC[C@]2(COC(=O)CSCC(=O)O)CC[C@]3(C)[C@H](CC[C@@H]4[C@@]5(C)CC[C@H](O)C(C)(C)[C@@H]5CC[C@]43C)[C@@H]12`, the result was inactive.

Turning to `C=C(C)[C@@H]1CC[C@]2(COC(=O)CCC(=O)O)CC[C@]3(C)[C@H](CC[C@@H]4[C@@]5(C)CCC(O)C(C)(C)[C@@H]5CC[C@]43C)[C@@H]12` (single isomer, unassigned), the result was inactive.

For `C=C(C)[C@@H]1CC[C@]2(COC(=O)c3ccccc3C(=O)N3CCOCC3)CC[C@]3(C)[C@H](CC[C@@H]4[C@@]5(C)CC[C@H](O)C(C)(C)[C@@H]5CC[C@]43C)[C@@H]12`, the outcome was inactive.

Consider `C=C(C)[C@@H]1CC[C@]2(COC(=O)CCCCCCCCCC(=O)N3CCOCC3)CC[C@]3(C)[C@H](CC[C@@H]4[C@@]5(C)CC[C@H](O)C(C)(C)[C@@H]5CC[C@]43C)[C@@H]12`, for which the result was inactive.

Regarding `C=C(C)[C@@H]1CC[C@]2(COC(=O)c3ccccc3C(=O)N3CCCCC3)CC[C@]3(C)[C@H](CC[C@H]4C3(C)CC[C@H]3C(C)(C)[C@@H](O)CC[C@@]34C)[C@@H]12` (single isomer, unassigned), the result was inactive.

For the compound `Nc1nc2c(ncn2COCCO)c(=O)[nH]1` [ACYCLOVIR], the outcome was inactive.

Consider `C=C(C)[C@@H]1CC[C@]2(COC(=O)/C=C(\C)C(=O)N3CCSCC3)CC[C@]3(C)[C@H](CC[C@@H]4[C@@]5(C)CC[C@H](O)C(C)(C)[C@@H]5CC[C@]43C)[C@@H]12`, for which the outcome was inactive.

As for `C=C(C)[C@@H]1CCC2(COC(=O)CCCCCCCCCC(=O)N3CCSCC3)CC[C@]3(C)[C@H](CC[C@@H]4[C@@]5(C)CC[C@H](O)C(C)(C)[C@@H]5CC[C@]43C)[C@@H]12` (single isomer, unassigned), the outcome was inactive.

In the case of `C=C(C)[C@@H]1CC[C@]2(COC(=O)CCCCCCCCCC(=O)N3CCCCC3)CC[C@]3(C)[C@H](CC[C@@H]4[C@@]5(C)CC[C@H](O)C(C)(C)[C@@H]5CC[C@]43C)[C@@H]12`, the outcome was inactive.

As to `C=C(C)[C@@H]1CC[C@]2(COC(=O)/C=C(\C)C(=O)N3CCCCC3)CC[C@]3(C)[C@H](CC[C@@H]4[C@@]5(C)CC[C@H](O)C(C)(C)[C@@H]5CC[C@]43C)[C@@H]12`, the result was inactive.

With `C=C(C)[C@@H]1CC[C@]2(COC(=O)CCCC(=O)N3CCCCC3)CC[C@]3(C)[C@H](CC[C@@H]4[C@@]5(C)CC[C@H](O)C(C)(C)[C@@H]5CC[C@]43C)[C@@H]12`, the outcome was inactive.

In the case of `C=C(C)[C@@H]1CC[C@]2(COC(=O)c3ccccc3C(=O)O)CC[C@]3(C)[C@H](CC[C@@H]4[C@@]5(C)CC[C@H](O)C(C)(C)[C@@H]5CC[C@]43C)[C@@H]12`, the outcome was inactive.

As to `C=C(C)[C@@H]1CC[C@]2(COC(=O)CCC(=O)N3CCSCC3)CC[C@]3(C)[C@H](CC[C@@H]4[C@@]5(C)CC[C@H](O)C(C)(C)[C@@H]5CC[C@]43C)[C@@H]12`, the result was inactive.

Consider `Nc1ccn(C[C@@H](CO)OCP(=O)(O)O)c(=O)n1.O.O` [CIDOFOVIR], for which the result was inactive.

As for `C=C(C)[C@@H]1CC[C@]2(COC(=O)c3cccc(C(=O)N4CCSCC4)c3)CC[C@]3(C)[C@H](CC[C@@H]4[C@@]5(C)CC[C@H](O)C(C)(C)[C@@H]5CC[C@]43C)C12` (single isomer, unassigned), the result was inactive.

`C#CC1(NC(=O)CCCC(=O)OC[C@]23CCC(C(=C)C)[C@@H]2[C@H]2CC[C@@H]4[C@@]5(C)CC[C@H](O)C(C)(C)[C@@H]5CC[C@@]4(C)[C@]2(C)CC3)CCCCC1` (single isomer, unassigned): the result was inactive.

For the compound `C=C(C)[C@@H]1CC[C@]2(COC(=O)/C=C(\C)C(=O)N3CCOCC3)CC[C@]3(C)[C@H](CC[C@@H]4[C@@]5(C)CC[C@H](O)C(C)(C)[C@@H]5CC[C@]43C)[C@@H]12`, the outcome was inactive.

Turning to `C=C(C)[C@@H]1CC[C@]2(COC(=O)c3ccccc3C(=O)N3CCSCC3)CC[C@]3(C)[C@H](CC[C@@H]4[C@@]5(C)CC[C@H](O)C(C)(C)[C@@H]5CC[C@]43C)[C@@H]12`, the outcome was inactive.

As to `C=C(C)[C@@H]1CC[C@]2(COC(=O)CCC(=O)N3CCCCC3)CC[C@]3(C)[C@H](CC[C@@H]4[C@@]5(C)CCC(O)C(C)(C)[C@@H]5CC[C@]43C)[C@@H]12` (single isomer, unassigned), the result was inactive.

Take `C#CC1(NC(=O)/C(C)=C/C(=O)OC[C@]23CC[C@@H](C(=C)C)[C@@H]2[C@H]2CC[C@@H]4[C@@]5(C)CC[C@H](O)C(C)(C)[C@@H]5CC[C@@]4(C)[C@]2(C)CC3)CCCCC1`: the result was inactive.

As for `C#CC1(NC(=O)CCC(=O)OC[C@]23CC[C@@H](C(=C)C)[C@@H]2[C@H]2CC[C@@H]4[C@@]5(C)CC[C@H](O)C(C)(C)[C@@H]5CC[C@@]4(C)[C@]2(C)CC3)CCCCC1`, the outcome was inactive.
